Structures can show the parent of a compound that is named as a salt.
Target: T1, Dipeptidyl-Peptidase IV (DPP IV) (Sus scrofa, UniProt P22411)
T1 construct: using 10 μl of the pig kidney preparation; from tissue; host or cells: pig kidney membrane fraction, solubilised with n-octyl-β-glucopyranoside
Assay: Inhibition of dipeptidyl-peptidase IV in pig kidney (Gly-Pro-pNA cleavage, absorbance at 405 nm)
Type: biochemical
Details: pig kidney membrane preparation; substrate Gly-Pro-pNA; 60 min at 37° C.; geometric mean of the IC50s
Procedure: Inhibition of Dipeptidyl-Peptidase IV in Pig Kidney
Preparation of the Membrane Fraction of Pig Kidney
Pig kidney tissue (large white pig, 2 to 3 months' old) was homogenised (5 g of tissue in 15 ml of Tris buffer (114 mM, pH 7.8-8)) and then centrifuged at 150000×g for 30 min. at 4° C. The pellet was taken up in 15 ml of buffer and re-centrifuged at 150000×g for 30 min. at 4° C. With stirring, the resulting pellet was dissolved in 15 ml of buffer with 60 mM n-octyl-β-glucopyranoside for 30 min. at ambient temperature. After centrifugation at 150000×g for 30 min. at 4° C., the supernatant was dialysed (MWCO 12-14000) against 114 mM Tris pH 7.8-8, and then divided into aliquots at —80° C.
Measurement of Dipetidyl Peptidase IV (DPP IV) Activity
The enzymatic activity is measured by cleavage of a chromogenic substrate, glycyl-prolyl-p-nitroanilide (Gly-Pro-pNA), giving Gly-Pro and pNA (p-nitroaniline); the latter is detected by absorbance at 405 nm. The activity is measured in the absence (control) or in the presence of 10 μl of the inhibitors, using 10 μl of the pig kidney preparation (0.81 mU, 1U=1 μmol of pNA product/min. at 37° C.). Incubation is started by adding the substrate (250 μl), dissolved in Tris buffer (114 mM) pH 7.8-8, over a period of 60 min. at 37° C. […] The results were expressed as a percentage of the control, and the IC50 values (effective dose for 50% inhibition of the control activity) were determined using non-linear analysis between 0 and 100%, (GraphPad Prism version 4.01 for Windows). Each measurement was carried out in quadruplicate and each IC50 determination was carried out from 1 to 5 times.
The results obtained (geometric mean of the IC50s) for the compounds representing the invention are compiled in the following Table: […]

T1 sequence (P22411 whole entry): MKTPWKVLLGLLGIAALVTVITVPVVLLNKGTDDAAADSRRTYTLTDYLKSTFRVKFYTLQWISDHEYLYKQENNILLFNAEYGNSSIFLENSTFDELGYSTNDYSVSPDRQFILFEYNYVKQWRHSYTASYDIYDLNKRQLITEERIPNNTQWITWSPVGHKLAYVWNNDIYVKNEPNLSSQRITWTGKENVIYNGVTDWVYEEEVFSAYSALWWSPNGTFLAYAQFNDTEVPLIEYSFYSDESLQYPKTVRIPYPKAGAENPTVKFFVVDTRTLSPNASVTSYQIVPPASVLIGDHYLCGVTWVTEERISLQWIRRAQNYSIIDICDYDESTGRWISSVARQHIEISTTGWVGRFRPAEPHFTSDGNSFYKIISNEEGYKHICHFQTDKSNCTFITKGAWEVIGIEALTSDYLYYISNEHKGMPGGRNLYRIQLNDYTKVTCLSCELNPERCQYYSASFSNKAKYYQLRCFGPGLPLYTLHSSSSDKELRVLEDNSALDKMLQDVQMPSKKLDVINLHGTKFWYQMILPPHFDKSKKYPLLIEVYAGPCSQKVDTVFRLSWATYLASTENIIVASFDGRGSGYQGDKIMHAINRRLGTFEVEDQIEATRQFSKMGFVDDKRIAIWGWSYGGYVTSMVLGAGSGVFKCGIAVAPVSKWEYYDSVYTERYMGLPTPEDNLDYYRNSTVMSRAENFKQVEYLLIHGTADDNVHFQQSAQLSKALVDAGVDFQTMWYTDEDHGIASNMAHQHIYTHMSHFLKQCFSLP

SMILES | IC50
N#C[C@@H]1CCCN1C(=O)CNC1(CO)CCC2(CCOCC2)CC1 [Example 1, (2S)-1-({[9-(Hydroxymethyl)-3-oxaspiro[5.5]undec-9-yl]amino}-acetyl)-2-pyrrolidinecarbonitrile] | 76.1 nM
N#C[C@@H]1CCCN1C(=O)CNC1(CO)CCC2(CCCCC2)CC1 [Example 5, (2S)-1-({[3-(Hydroxymethyl)spiro[5.5]undec-3-yl]amino}acetyl)-2-pyrrolidinecarbonitrile] | 68.5 nM
N#C[C@@H]1CCCN1C(=O)CNC1CCC2(CCCCCCC2)CC1 [Example 6, (2S)-1-[(Spiro[5.7]tridec-3-ylamino)acetyl]-2-pyrrolidinecarbonitrile hydrochloride] | 27.2 nM
N#C[C@@H]1CCCN1C(=O)CNC1CCC2(CC1)CCC1(CCCCC1)CC2 [Example 8, (2S)-1-[(Dispiro[5.2.5.2]hexadec-3-ylamino)acetyl]-2-pyrrolidine-carbonitrile] | 23 nM
N#C[C@@H]1CCCN1C(=O)CNC1(CO)CC2(CCCC2)C1 [Example 17, (2S)-1-({[2-(Hydroxymethyl)spiro[3.4]oct-2-yl]amino}acetyl)-2-pyrrolidinecarbonitrile hydrochloride] | 43.6 nM
N#C[C@@H]1CSCN1C(=O)CNC1CCC2(CCCCC2)CC1 [Example 18, (4R)-3-[(Spiro[5.5]undec-3-yl-amino)acetyl]-1,3-thiazolidine-4-carbonitrile trifluoroacetate] | 3.5 nM
N#C[C@@H]1CCCN1C(=O)CNC1CCC2(CCNCC2)CC1 [Example 20, (2S)-1-[(3-Azaspiro[5.5]undec-9-ylamino)acetyl]-2-pyrrolidine-carbonitrile bis(trifluoroacetate)] | 73.1 nM
N#C[C@@H]1CCCN1C(=O)CNC1CCC2(CCSCC2)CC1 [Example 23, (2S)-1-[(3-Thiaspiro[5.5]undec-9-ylamino)acetyl]-2-pyrrolidine-carbonitrile hydrochloride] | 27 nM
N#C[C@@H]1CCCN1C(=O)CNC1CCC2(CC1)CC2 [Example 28, (2S)-1-[(Spiro[2.5]oct-6-ylamino)acetyl]-2-pyrrolidinecarbonitrile] | 171 nM
N#C[C@@H]1C[C@H](F)CN1C(=O)CNC1(CO)CCC2(CCOCC2)CC1 [Example 29, (2S,4S)4-Fluoro-1-({[9-(hydroxymethyl)-3-oxaspiro[5.5]undec-9-yl]-amino}acetyl)-2-pyrrolidinecarbonitrile] | 31.6 nM
N#C[C@@H]1CC(F)(F)CN1C(=O)CNC1(CO)CCC2(CCOCC2)CC1 [Example 30, (2S)-4,4-Difluoro-1-({[9-(hydroxymethyl)-3-oxaspiro[5.5]undec-9-yl]amino}acetyl)-2-pyrrolidinecarbonitrile] | 20.5 nM

Reference: patent US7439263B2, “Pyrrolidine and thiazolidine compounds” (Les Laboratoires Servier, priority 2004, dated 2008)
